Experiments:
[1] = species on record: Homo sapiens; assay: Liver toxicity in human assessed as induction of drug-induced liver injury by measuring severity class index
[2] = species on record: Homo sapiens; assay: Liver toxicity in human assessed as induction of drug-induced liver injury by measuring verified drug-induced liver injury concern status
For DILI severity class in this document: key of the grades not given here.

Row | Molecule | DILI_severity_class [1] | DILI_Concern [2]
1 | COc1ccccc1OCC(O)COC(N)=O (stereo unspecified) [METHOCARBAMOL] | 5 | Ambiguous-Dili-Concern
2 | c1ccc2[nH]c(-c3cscn3)nc2c1 [THIABENDAZOLE] | 7 | Most-Dili-Concern
3 | CCOc1ccccc1OCCN[C@H](C)Cc1ccc(OC)c(S(N)(=O)=O)c1 [TAMSULOSIN] | 0 | Less-Dili-Concern
4 | CC1(C)S[C@@H]2[C@H](NC(=O)Cc3ccccc3)C(=O)N2[C@H]1C(=O)O [PENICILLIN G] | 3 | Less-Dili-Concern
5 | O=C1CC2(CCCC2)CC(=O)N1CCCCN1CCN(c2ncccn2)CC1 [BUSPIRONE] | 3 | Ambiguous-Dili-Concern
6 | CN1C(C(=O)Nc2ccccn2)=C(O)c2ccccc2S1(=O)=O [PIROXICAM] | 3 | Less-Dili-Concern
7 | CO[C@H]1/C=C/O[C@@]2(C)Oc3c(C)c(O)c4c(c3C2=O)C2=NC3(CCN(CC(C)C)CC3)NC2=C(NC(=O)/C(C)=C\C=C\[C@H](C)[C@H](O)[C@@H](C)[C@@H](O)[C@@H](C)[C@H](OC(C)=O)[C@@H]1C)C4=O [RIFABUTIN] | 5 | Less-Dili-Concern
8 | C1N2CN3CN1CN(C2)C3.O=C(O)CNC(=O)c1ccccc1 [METHENAMINE HIPPURATE] | 3 | Ambiguous-Dili-Concern
9 | C=C1/C(=C\C=C2/CCC[C@]3(C)[C@@H]([C@H](C)/C=C/[C@H](C)C(C)C)CC[C@@H]23)C[C@@H](O)C[C@@H]1O [DOXERCALCIFEROL] | 3 | Ambiguous-Dili-Concern
10 | Cc1ncc(C[n+]2csc(CCO)c2C)c(N)n1 [THIAMINE ION] | 0 | No-Dili-Concern
11 | NC1=NC(=O)C(c2ccccc2)O1 (stereo unspecified) [PEMOLINE] | 8 | Most-Dili-Concern
12 | C[C@](N)(Cc1ccc(O)cc1)C(=O)O [METYROSINE] | 0 | No-Dili-Concern
13 | N=C(N)NC(=O)Cc1c(Cl)cccc1Cl [GUANFACINE] | 3 | Ambiguous-Dili-Concern
14 | C=C1C[C@@H]2[C@H](CC[C@]3(C)C(=O)CC[C@@H]23)[C@@]2(C)C=CC(=O)C=C12 [EXEMESTANE] | 4 | Most-Dili-Concern
15 | C[C@H](CCC(=O)O)[C@H]1CC[C@H]2[C@@H]3[C@H](O)C[C@@H]4C[C@H](O)CC[C@]4(C)[C@H]3CC[C@]12C [CHENODIOL] | 8 | Ambiguous-Dili-Concern
16 | DALTEPARIN SODIUM | 3 | Less-Dili-Concern
17 | CCOc1cc(CC(=O)N[C@@H](CC(C)C)c2ccccc2N2CCCCC2)ccc1C(=O)O [REPAGLINIDE] | 5 | Less-Dili-Concern
18 | COc1cc2c(cc1OC)C1CC(=O)C(CC(C)C)CN1CC2 (stereo unspecified) [TETRABENAZINE] | 3 | Ambiguous-Dili-Concern
19 | CC(C)CN(C[C@@H](OP(=O)(O)O)[C@H](Cc1ccccc1)NC(=O)O[C@H]1CCOC1)S(=O)(=O)c1ccc(N)cc1 [FOSAMPRENAVIR] | 3 | Ambiguous-Dili-Concern
20 | CCOC(=O)Nc1ccc2c(c1)N(C(=O)CCN1CCOCC1)c1ccccc1S2 [MORICIZINE] | 5 | Ambiguous-Dili-Concern
21 | C=C1CC[C@@]2(O)[C@H]3Cc4ccc(O)c5c4[C@@]2(CCN3CC2CC2)[C@H]1O5.Cl [NALMEFENE HYDROCHLORIDE] | 3 | Ambiguous-Dili-Concern
22 | CC1Cc2ccccc2N1NC(=O)c1ccc(Cl)c(S(N)(=O)=O)c1 (stereo unspecified) [INDAPAMIDE] | 5 | Ambiguous-Dili-Concern
23 | CC(C)(S)[C@@H](N)C(=O)O [PENICILLAMINE] | 2 | Less-Dili-Concern

Source: ChEMBL document CHEMBL4028802, “DILIrank: the largest reference drug list ranked by the risk for developing drug-induced liver injury in humans” (Drug Discov Today, 2016)
